According to PubChem BioAssay AID328 (DTP/NCI, 2004):
Where “and” joins values, the source holds several entries; their conditions need not be identical. Equal values may be shown once. Inconclusive results and toxic doses are left out.

Test system: BDF1 mice, P388 leukemia ip, median survival T/C
Assay: NCI In Vivo Anticancer Drug Screen. Data for tumor model P388 Leukemia (intraperitoneal) in B6D2F1 (BDF1) mice
Details: endpoint: median survival time, higher = longer survival
Summary of the method: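 Antitumour effect was judged in vivo: survival in drug-treated mice, normalised to that of vehicle-dosed controls, gives the reported T/C.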

[1] = dose: 50.0 mg/kg/injection, schedule: Q04DX003 (ip), vehicle: saline
[2] = dose: 100.0 mg/kg/injection, schedule: Q01DX009 (ip), vehicle: saline with Tween-80
[3] = dose: 200.0 mg/kg/injection, schedule: Q01DX009 (ip), vehicle: saline with Tween-80
[4] = dose: 400.0 mg/kg/injection, schedule: Q04DX003 (ip), vehicle: saline with Tween-80
[5] = dose: 25.0 mg/kg/injection, schedule: Q01DX009 (ip), vehicle: Klucel (hydroxypropylcellulose) (HPC)
[6] = dose: 50.0 mg/kg/injection, schedule: Q01DX009 (ip), vehicle: saline
[7] = dose: 100.0 mg/kg/injection, schedule: Q01DX009 (ip), vehicle: saline
[8] = dose: 100.0 mg/kg/injection, schedule: Q04DX003 (ip), vehicle: saline
[9] = dose: 50.0 mg/kg/injection, schedule: Q01DX009 (ip), vehicle: saline with Tween-80
[10] = dose: 25.0 mg/kg/injection, schedule: Q01DX009 (ip), vehicle: saline with Tween-80
[11] = dose: 100.0 mg/kg/injection, schedule: Q04DX003 (ip), vehicle: saline with Tween-80
[12] = dose: 200.0 mg/kg/injection, schedule: Q04DX003 (ip), vehicle: saline with Tween-80
[13] = dose: 400.0 mg/kg/injection, schedule: Q01DX009 (ip), vehicle: saline with Tween-80

With `Nc1ccn(C2OC(COP(=O)(O)O)C(O)C2O)c(=O)n1` (stereo not given) the T/C (dose: 4.2 mg/kg/injection, schedule: Q04DX003 (ip), vehicle: saline with Tween-80) was 113 % of control, the T/C (dose: 6.3 mg/kg/injection, schedule: Q04DX003 (ip), vehicle: saline with Tween-80) was 113 % of control and the T/C (dose: 9.6 mg/kg/injection, schedule: Q04DX003 (ip), vehicle: saline) was 150 % of control. For the same compound, the T/C [1] was 159 % of control, the T/C (dose: 75.0 mg/kg/injection, schedule: Q04DX003 (ip), vehicle: saline) was 172 % of control and the T/C [2] was 187 % of control. For the same compound, the T/C (dose: 115.0 mg/kg/injection, schedule: Q04DX003 (ip), vehicle: saline with Tween-80) was 172 % of control, the T/C (dose: 175.0 mg/kg/injection, schedule: Q04DX003 (ip), vehicle: saline with Tween-80) was 168 % of control and the T/C [3] was 112 % of control. For the same compound, the T/C (dose: 264.0 mg/kg/injection, schedule: Q04DX003 (ip), vehicle: saline with Tween-80) was 181 % of control, the T/C [4] was 154 % of control and the T/C (dose: 600.0 mg/kg/injection, schedule: Q04DX003 (ip), vehicle: saline with Tween-80) was 177 % of control.

In the case of `Cc1cc(N(CCCl)CCCl)ccc1N=Nc1ccccc1C(=O)O`, the T/C (dose: 5.0 mg/kg/injection, schedule: Q01DX010 (ip), vehicle: saline) is reported as 150 % of control, the T/C (dose: 10.0 mg/kg/injection, schedule: Q01DX010 (ip), vehicle: saline) is reported as 175 % of control and the T/C (dose: 20.0 mg/kg/injection, schedule: Q01DX010 (ip), vehicle: saline) is reported as 210 % of control. For the same compound, the T/C (dose: 40.0 mg/kg/injection, schedule: Q01DX010 (ip), vehicle: saline) was 95 % of control.

With `CC[n+]1ccc(Cc2ccc([N+](=O)[O-])cc2)cc1` the T/C [5] was 104 % of control and 119 % of control, the T/C (dose: 25.0 mg/kg/injection, schedule: Q04DX003 (ip), vehicle: Klucel (hydroxypropylcellulose) (HPC)) was 100 % of control and the T/C (dose: 50.0 mg/kg/injection, schedule: Q01DX009 (ip), vehicle: Klucel (hydroxypropylcellulose) (HPC)) was 109 % of control. For the same compound, the T/C (dose: 50.0 mg/kg/injection, schedule: Q04DX003 (ip), vehicle: Klucel (hydroxypropylcellulose) (HPC)) was 100 % of control and the T/C (dose: 100.0 mg/kg/injection, schedule: Q04DX003 (ip), vehicle: Klucel (hydroxypropylcellulose) (HPC)) was 100 % of control.

For `Nc1nc(F)nc2c1ncn2C1OC(CO)C(O)C1O` (stereo not given), the T/C (dose: 0.5 mg/kg/injection, schedule: Q01DX010 (ip), vehicle: saline) was 90 % of control and 108 % of control, the T/C (dose: 1.0 mg/kg/injection, schedule: Q01DX010 (ip), vehicle: saline) was 100 % of control and 108 % of control and the T/C (dose: 2.0 mg/kg/injection, schedule: Q01DX010 (ip), vehicle: saline) was 110 % of control and 120 % of control. For the same compound, the T/C (dose: 4.0 mg/kg/injection, schedule: Q01DX010 (ip), vehicle: saline) was 105 % of control and 112 % of control.

`C[S+](C)Cc1ccc(C(=O)Oc2ccc([N+](=O)[O-])cc2)cc1` was tested, and the T/C [6] was 100 % of control, the T/C [1] was 100 % of control and the T/C [7] was 105 % of control. The T/C [8] was 109 % of control and the T/C (dose: 200.0 mg/kg/injection, schedule: Q04DX003 (ip), vehicle: saline) was 100 % of control.

With `CC(NCCCSc1ccccc1)C(O)c1ccc(O)cc1` (stereo not given) the T/C [9] was 99 % of control and 100 % of control and 105 % of control and the T/C [2] was 110 % of control and 114 % of control and 119 % of control.

`O=C(CC(O)(C(F)(F)F)C(F)(F)F)c1ccc(Br)cc1` was tested, and the T/C (dose: 100.0 mg/kg/injection, schedule: Q01DX009 (ip), vehicle: other) was 91 % of control, the T/C (dose: 100.0 mg/kg/injection, schedule: Q04DX003 (ip), vehicle: other) was 120 % of control and the T/C (dose: 200.0 mg/kg/injection, schedule: Q01DX009 (ip), vehicle: other) was 91 % of control. The T/C (dose: 200.0 mg/kg/injection, schedule: Q04DX003 (ip), vehicle: other) was 110 % of control, the T/C (dose: 400.0 mg/kg/injection, schedule: Q01DX009 (ip), vehicle: other) was 91 % of control and the T/C (dose: 400.0 mg/kg/injection, schedule: Q04DX003 (ip), vehicle: other) was 120 % of control.

With `CN(C(=S)SSC(=S)N(C)c1ccccc1)c1ccccc1` the T/C (dose: 12.5 mg/kg/injection, schedule: Q01DX009 (ip), vehicle: saline with Tween-80) was 98 % of control, the T/C [10] was 99 % of control and the T/C [9] was 100 % of control. The T/C [2] was 92 % of control, the T/C (dose: 200.0 mg/kg/injection, schedule: Q01DX001 (ip), vehicle: Klucel (hydroxypropylcellulose) (HPC)) was 91 % of control and the T/C (dose: 400.0 mg/kg/injection, schedule: Q01DX001 (ip), vehicle: Klucel (hydroxypropylcellulose) (HPC)) was 95 % of control.

`O=C1CCC(NC2OC(=O)c3ccccc32)C(=O)O1` (stereo not given) was tested, and the T/C [9] was 111 % of control, the T/C [2] was 102 % of control and the T/C [3] was 109 % of control.

For `O=S(=O)(CCl)OCCCl`, the T/C [10] was 123 % of control, the T/C [9] was 107 % of control and the T/C [2] was 214 % of control. For the same compound, the T/C [3] was 177 % of control.

With `CC(C)(O)C(NC(N)=O)c1ccccc1` (stereo not given) the T/C [9] was 104 % of control, the T/C [2] was 101 % of control and the T/C [3] was 100 % of control.

With `COc1cc2ccccc2c(-c2c(O)c(OC)cc3ccccc23)c1O` the T/C [9] was 91 % of control, the T/C [2] was 86 % of control and the T/C [3] was 88 % of control.

For `COc1cccc(Nc2sc(C(=O)c3cc4cc(Cl)ccc4o3)c(N)c2C#N)c1`, the T/C [9] was 109 % of control, the T/C [2] was 100 % of control and the T/C [3] was 115 % of control.

In the case of `O=C1C=C(Cl)C(=O)C(Cl)=C1`, the T/C (dose: 3.0 mg/kg/injection, schedule: Q01DX009 (ip), vehicle: Klucel (hydroxypropylcellulose) (HPC)) is reported as 100 % of control, the T/C (dose: 6.0 mg/kg/injection, schedule: Q01DX009 (ip), vehicle: Klucel (hydroxypropylcellulose) (HPC)) is reported as 87 % of control and the T/C (dose: 6.25 mg/kg/injection, schedule: Q04DX003 (ip), vehicle: Klucel (hydroxypropylcellulose) (HPC)) is reported as 95 % of control. For the same compound, the T/C (dose: 12.5 mg/kg/injection, schedule: Q04DX003 (ip), vehicle: Klucel (hydroxypropylcellulose) (HPC)) was 100 % of control.

For `C/C(=C1/c2ccccc2-c2n[nH]c(C)c21)S(=O)(=O)O`, the T/C [11] was 104 % of control, the T/C [12] was 100 % of control and the T/C [4] was 100 % of control.

In the case of `c1ccc(-c2ncnc3c2Cc2ccccc2-3)cc1`, the T/C [2] is reported as 104 % of control, the T/C [11] is reported as 100 % of control and the T/C [3] is reported as 104 % of control. The T/C [12] was 100 % of control, the T/C [13] was 91 % of control and the T/C [4] was 109 % of control.

In the case of `CN(C)c1ccc2c(c1)Cc1cc(N=C3C=CC(=O)O3)ccc1-2`, the T/C (dose: 1.56 mg/kg/injection, schedule: Q01DX009 (ip), vehicle: Klucel (hydroxypropylcellulose) (HPC)) is reported as 109 % of control, the T/C (dose: 3.12 mg/kg/injection, schedule: Q01DX009 (ip), vehicle: Klucel (hydroxypropylcellulose) (HPC)) is reported as 100 % of control and the T/C (dose: 6.25 mg/kg/injection, schedule: Q01DX009 (ip), vehicle: Klucel (hydroxypropylcellulose) (HPC)) is reported as 90 % of control. For the same compound, the T/C (dose: 25.0 mg/kg/injection, schedule: Q01DX009 (ip), vehicle: saline) was 92 % of control and the T/C [6] was 100 % of control.

With `COc1ccc(C[C@H](N)C(=O)NC2C(CO)OC(n3cnc4c(N(C)C)ncnc43)C2O)cc1` (stereo not given in full) the T/C (dose: 25.0 mg/kg/injection, schedule: Q04DX003 (ip), vehicle: saline) was 98 % of control, the T/C [1] was 109 % of control and the T/C [7] was 100 % of control. For the same compound, the T/C [8] was 105 % of control.

For `O=C(NCC(S)c1ccc(Cl)cc1)C(F)(F)F` (stereo not given), the T/C (dose: 6.25 mg/kg/injection, schedule: Q04DX003 (ip), vehicle: saline with Tween-80) was 100 % of control, the T/C (dose: 12.5 mg/kg/injection, schedule: Q04DX003 (ip), vehicle: saline with Tween-80) was 100 % of control and the T/C (dose: 25.0 mg/kg/injection, schedule: Q04DX003 (ip), vehicle: saline with Tween-80) was 118 % of control.

In the case of `Cc1cc(Cl)c(C)c(Cl)c1Cl`, the T/C [2] is reported as 90 % of control, the T/C [3] is reported as 95 % of control and the T/C [13] is reported as 86 % of control.

`COc1cccc2c1C(=O)c1c(O)c3c(c(O)c1C2=O)CC(O)(/C(C)=N/NC(=O)CCC(=O)N/N=C(\C)C1(O)Cc2c(O)c4c(c(O)c2C(OC2CC(N)C(O)C(C)O2)C1)C(=O)c1c(OC)cccc1C4=O)CC3OC1CC(N)C(O)C(C)O1` (stereo not given) was tested, and the T/C (dose: 14.4 mg/kg/injection, schedule: Q04DX003 (ip), vehicle: water) was 158 % of control and the T/C (dose: 40.0 mg/kg/injection, schedule: Q04DX003 (ip), vehicle: water) was 109 % of control.

`O=[N+]([O-])c1cc(C(F)(F)F)cc([N+](=O)[O-])c1N1CCCC(n2cccc2)C1` (stereo not given) was tested, and the T/C [9] was 107 % of control, the T/C [2] was 109 % of control and the T/C [3] was 118 % of control.

For `c1ccc([B-]2([C+]3CCCCC3)N3CCCCC3C3CCCCN32)cc1` (stereo not given), the T/C (dose: 12.5 mg/kg/injection, schedule: Q01DX009 (ip), vehicle: Klucel (hydroxypropylcellulose) (HPC)) was 119 % of control and the T/C [5] was 119 % of control.
